# Measurements reported in patent publication US5962633A, “Cytotoxic T-lymphocyte antigen as cysteine protease inhibitor” (Bayer Corporation, priority 1995, dated 1999).
# Like-named read-outs stand apart in the source and are kept apart here. No end group written: not given here.
# B1: monomeric CTLA-2β: monomeric form of recombinant CTLA-2β, mass 12.8 kd, reverse-phase purified (protein, UniProt P12400 1-113, looked up)
# Protein CTLA-2-beta: MMSAAPSPDPSLDNEWKEWKTTFAKAYSLDEERHRRLMWEENKKKIEAHNADYERGKTSFYMGLNQFSDLTPEEFRTNCCGSSMCRGEMAPDLPEYEDLGKNSYLTPGRAQPE
# How the values were obtained:
# [1] = system: cartilage proteoglycan degradation; details: 100 μM; cited from earlier work
# human liver Cathepsin L = molecular target: T1, human liver Cathepsin L (Homo sapiens, UniProt P07711); assay: Cathepsin L fluorescence assay (hydrolysis of Z-Phe-Arg-AMC); format: biochemical
# T1 construct: from tissue; host or cells: human liver
# T1 sequence (P07711 114-288 limits assumed): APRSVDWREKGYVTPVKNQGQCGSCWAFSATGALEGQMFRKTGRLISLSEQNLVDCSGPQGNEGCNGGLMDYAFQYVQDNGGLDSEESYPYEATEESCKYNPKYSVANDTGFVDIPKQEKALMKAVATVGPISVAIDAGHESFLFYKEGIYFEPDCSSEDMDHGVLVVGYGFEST
# T1 sequence (P07711 292-333 limits assumed): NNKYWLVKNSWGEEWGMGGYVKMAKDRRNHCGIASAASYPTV
# Method: A fluorescence based assay was set up according to Barrett and Kirschke (Barrett et al., 1981, Meth. in Enz., 80:535).
# The enzyme sample was diluted with 750 μl of assay buffer (340 mM sodium acetate--60 mM acetic acid--4 mM disodium EDTA, pH 5.5 and 8 mM DTT added fresh) and various concentrations of CTAL-2β (a final concentration of 5-50 nM), was added. After an incubation period of 6 minutes at room temperature, 1500 μl of 0.1% Brij 35 was added. The substrate Z-Phe-Arg-AMC (AMC is aminomethyl-coumarin) was added at a final concentration of either 2.5 μM or 5.0 μM.
# The fluoresence of the free aminomethyl-coumarin was measured in an SLM 4800S fluorimeter by excitation at 370 nm and emission at 432 nm over a six minute time period. […] In order to calculate the velocities, a linear least squares analysis was performed over the initial linear part of the data.
# The Ki value is equal to the negative of the X-axis intercept that gives the same velocity at the different substrate concentrations if there is competitive inhibition (Dixon et al., 1979, Enzymes, 3rd Ed., Academic Press, New York, page, 365).
# These peptides were tested for inhibition of Cathepsin L activity using the assays described previously. Briefly, Cathepsin L (19 pM final as determined by active site titration using E-64, Barret & Kirschke, 1991) was added to 750 μL of assay buffer consisting of […] sodium acetate--60 mM acetic acid (pH 5.5), 4 mM disodium EDTA, and 8 mM DTT. Peptides were added at concentrations ranging from on to 35 μM. […] The fluorescence of the free aminomethylcoumarin was measured in an SLM 4800s fluorimeter at excitation of 370 nm and an emission at 432 nm over a 6 minute time period. Fluorence was converted to μM AMC released by using a standard curve generated by plotting μM AMC vs. fluorescence, and plotted vs. time. […] The i.c. 50 values were determined from Dixon plots of the form V-/V+ (velocity without peptide/velocity with peptide) vs. peptide concentration. […]
# [2] = system: proteoglycan release from articular cartilage explants; assay: Micro organ culture assay (MOCA): IL-1 induced proteoglycan release from articular cartilage explants; format: cell-based, calf; details: p117 10 μM (best concentration); IL-1 alpha 50 U/ml
# Source text: The assay system used for testing the peptides for inhibitory activity of proteolglycan release is a micro organ culture assay (MOCA). Papain; cetyl pyridinium chloride and chondroitin sulfate type C was purchased from Sigma Chemical Co. (St. Louis, MO). Interleukin 1 alpha was purchased from Collaborative Research. ABCase, chrondroitinase, ABC lyase, and keratanase were obtained from ICL Na^35 SO4 was purchased from NEN.
# Articular cartilage explants from calk knee joints were maintained in culture in DMEM medium containing 20 μCi/ml Na ^35 SO4 for 48 hours for the incorporation of label into newly synthesized proteoglycan (PG). The radiolabelled medium was then removed, the radiolabelled explants washed 3×30 ml cold DMEM and placed into a 96 well plate with or without IL-1 (Interleukin-1 alpha, 50 U/ml) and various concentrations of p117. The explants were incubated first for 24 hours in the presence of IL-1 in order to ensure initiation of IL-1 indicated auto-catalysis prior to the addition of various metalloprotease inhibitors for an additional 72 hours.
# The newly synthesized radiolabelled proteoglycans released during the cultivation period were subjected to enzymatic digestion with papain. […] The filter was dried and counted after addition of 10 mls of scintillation cocktail (scintillant).
# papain = papain (Carica papaya, UniProt P00784); details: read-out: i.c. 50 in Papain Assay; substrate Z-Phe-Arg-AMC; papain 33.3 ng/ml; Dixon plot V-/V+ vs. I
# Sequence of papain (P00784 134-345): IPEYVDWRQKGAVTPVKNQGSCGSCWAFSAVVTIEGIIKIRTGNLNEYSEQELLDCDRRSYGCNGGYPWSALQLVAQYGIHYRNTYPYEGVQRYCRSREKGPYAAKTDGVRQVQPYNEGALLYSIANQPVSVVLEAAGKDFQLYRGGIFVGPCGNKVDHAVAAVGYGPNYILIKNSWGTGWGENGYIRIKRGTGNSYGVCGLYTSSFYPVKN
# Method: The fluorescence was measured and the i.c. 50 was determined.
molecule,measurement,setting,value
"CC(C)C[C@H](NC(=O)[C@H]1O[C@@H]1C(=O)O)C(=O)NCCCCN=C(N)N (relative stereo) [E64, trans-epoxysuccinyl L-leucylamido-(4-guanido)butane]",inhibition of IL-1 stimulated cartilage proteoglycan degradation,[1],did not work
CC(C)CCNC(=O)[C@H](CC(C)C)NC(=O)[C@H]1O[C@@H]1C(=O)O [Ep475],inhibition of IL-1 stimulated cartilage proteoglycan degradation,[1],did not work
CRGEMAPDLPEYEDLG [p092],IC50,"human liver Cathepsin L; Cathepsin L 19 pM, 5.0 μM Z-Phe-Arg-NMec (AMC), 6 minute incubation at 25° C., read-out: i.c. 50 (synthetic peptides, Cathepsin L)",41000 nM
ENKKKIEAHNADYERGKTSFC [P089],inhibition of Cathepsin L at 10 uM peptide,"human liver Cathepsin L; peptide 10 uM, printed in the i.c. 50 column",25%
YSLDEERHRRLMWEENKKKIEAH [p117],% inhibition of proteoglycan release,[2],about 30%
B1,IC50,papain,14 nM
same,IC50,"human liver Cathepsin L; reverse-phase purified CTLA-2β, Dixon plot V-/V+ vs. I, substrate Z-Phe-Arg-AMC, read-out: i.c. 50 in Cathepsin L Assay",18.2 nM
